Test results as given in the NIST ThermoML archive (doi:10.1021/je900137r).

Assay: molar heat capacity at saturation pressure
Details: Liquid, Vacuum adiabatic calorimetry

CCC [propane]
Details	molar heat capacity [J/K/mol]
88.92 K	84.87
91.12 K	84.92
92.73 K	84.92
94.89 K	85.02
96.47 K	84.96
98.58 K	85.12
100.13 K	85.19
102.21 K	85.32
103.73 K	85.36
105.78 K	85.44
107.27 K	85.47
109.28 K	85.76
110.76 K	85.79
112.74 K	85.84
114.19 K	85.97
116.15 K	86.05
117.58 K	86.14
119.51 K	86.16
120.93 K	86.45
122.83 K	86.51
124.23 K	86.53
126.12 K	86.66
127.5 K	86.9
129.36 K	86.88
130.73 K	87.09
132.57 K	87.07
133.93 K	87.31
135.75 K	87.22
137.1 K	87.67
138.9 K	87.5
140.23 K	87.61
142.01 K	87.94
143.34 K	87.91
145.1 K	88.06
146.41 K	88.35
148.16 K	88.33
149.46 K	88.44
151.2 K	88.72
152.48 K	88.71
154.21 K	88.83
155.47 K	89
157.2 K	89.06
158.45 K	89.26
160.15 K	89.66
161.4 K	89.43
163.09 K	90.05
164.34 K	89.53
166 K	90.04
167.25 K	90.06
168.9 K	90.24
170.14 K	90.37
171.79 K	90.38
173.01 K	90.28
174.65 K	90.89
175.86 K	90.91
177.49 K	91.25
178.7 K	91.17
180.31 K	91.67
181.51 K	91.3
183.12 K	91.84
184.31 K	91.75
185.91 K	92.02
187.09 K	92.23
188.68 K	92.09
189.85 K	92.57
191.44 K	92.72
192.61 K	92.88
194.18 K	93.05
195.34 K	93.67
196.91 K	93.56
198.06 K	93.95
199.62 K	94.02
200.76 K	94.12
202.32 K	94.07
203.45 K	94.68
205.01 K	94.36
206.14 K	94.22
207.69 K	94.92
208.8 K	94.54
210.35 K	95.41
211.45 K	95.58
213 K	96.05
214.1 K	96.24
215.65 K	96.38
216.73 K	96.69
218.28 K	97.14
219.35 K	97.4
220.9 K	96.94
221.97 K	97.43
223.51 K	97.28
224.57 K	97.58
226.12 K	98.17
227.16 K	98.39
228.72 K	98.66
229.75 K	98.99
231.31 K	99.11
232.33 K	99.49
233.9 K	99.63
234.9 K	99.41
236.47 K	99.64
237.46 K	100.12
239.04 K	100.21
240.02 K	100.5
241.61 K	100.94
242.57 K	101.2
244.17 K	101.8
245.12 K	101.78
246.72 K	102.66
247.66 K	102.27
249.28 K	103.18
250.2 K	102.98
251.83 K	103.62
252.74 K	103.41
254.37 K	104.07
255.27 K	103.99
256.92 K	104.47
257.8 K	104.55
259.46 K	104.97
260.32 K	105.39
262 K	106
262.85 K	106.36
264.54 K	106.11
265.38 K	106.45
267.08 K	107.17
267.9 K	107.71
267.92 K	107.58
269.62 K	107.64
270.42 K	108.4
270.71 K	108.16
271.49 K	109.25
272.15 K	109.03
272.92 K	109.16
273.04 K	108.7
273.85 K	109.09
274.7 K	109.64
275.38 K	109.29
275.42 K	110.08
276.2 K	109.72
277.24 K	110.22
277.72 K	110.44
277.92 K	110.44
278.57 K	110.68
279.78 K	110.83
280.07 K	110.92
280.41 K	111.44
280.93 K	111.66
282.32 K	111.64
282.41 K	112.19
282.91 K	112.06
283.3 K	112.78
284.77 K	113.05
284.86 K	112.93
285.41 K	112.26
285.68 K	112.86
287.13 K	113.09
287.41 K	113.95
287.91 K	113.12
288.05 K	113.08
289.5 K	114.17
289.95 K	114.64
290.41 K	114.75
290.43 K	114.57
291.86 K	114.95
292.5 K	115.46
292.81 K	115.77
292.93 K	115.51
294.24 K	115.29
295.04 K	116.36
295.21 K	116
295.44 K	116.88
296.61 K	116.56
297.59 K	117.55
297.6 K	116.98
297.96 K	117.85
298.99 K	117.8
300 K	118.27
300.14 K	118.94
300.48 K	117.96
301.38 K	118.85
302.4 K	119.55
302.69 K	119.67
303.01 K	118.38
303.77 K	119.3
304.81 K	120.27
305.25 K	120.48
305.54 K	119.64
306.16 K	120.81
307.23 K	121.32
307.82 K	121.03
308.07 K	121.52
308.57 K	122.04
309.65 K	121.95
310.38 K	122.63
310.62 K	122.47
310.98 K	123.64
312.07 K	123.46
312.95 K	123.93
313.15 K	124.63
313.4 K	124.69
314.51 K	124.14
315.53 K	124.76
315.71 K	125.89
315.83 K	124.99
318.12 K	125.37
318.27 K	126.41
323.24 K	129.01
323.35 K	129.31
325.84 K	130.18
325.93 K	131.3
328.44 K	132.33
328.51 K	133.4
331.06 K	135.04
331.1 K	135.99
333.69 K	136.44
333.7 K	137.68
336.31 K	139.1
336.32 K	139.03
338.93 K	140.95
338.96 K	142.73
341.56 K	144.64
341.61 K	145.97
344.21 K	149.14
344.27 K	148.36
